Measured values from PMC11111408, “Concurrent inhibition of oncogenic and wild-type RAS-GTP for cancer therapy” (Nature, 2024).
Several values for one entry are separate records, joined by “and”; a condition that tells them apart may be missing. Identical values can stand only once.

What was measured:
[1] = system: KRAS^G12D PDAC cell lines; assay: Western blot time course of RAS signalling in KRAS^G12D PDAC cell lines; type: cell-based, human; settings: KRAS^G12D PDAC cells in culture, 2 h to 48 h
Protocol: Total ERK and vinculin were used as loading controls. […] Source Data
Cells were lysed with MSD Tris Lysis Buffer (MSD, R60TX-2) or a buffer of 1% Triton X-100, 20 mM Tris-HCl, 150 mM NaCl, and 1 mM EDTA, both supplemented with protease and phosphatase inhibitors. Lysates were cleared by centrifugation and quantified by BCA assay (Pierce, 23225). […] Image Studio Lite (Version 5.2.5) and Image Lab (Version 6.1.0 build 7) software were used for data analysis.

[2] = system: Pa16C cells expressing MEK1 mutants; assay: Proliferation (Calcein AM) of Pa16C cells expressing MEK1 mutants; type: cell-based, human
CYPA = biological target: T1, CYPA (Homo sapiens, UniProt P62937); assay: CYPA binding affinity (Kd1), SPR; settings: steady state, (95% CI)
T1 construct: His6-TEV-AviTag-CYPA (full-length); His6-TEV (N); made in house; host or cells: BL21(DE3) Escherichia coli
Protocol: The binding affinity of compounds for CYPA (Kd1) was assessed by SPR on a Biacore 8K instrument as previously described.

Capan-1 cells [3] = assay: Cellular ERK phosphorylation (pERK); type: cell-based; settings: Homo sapiens; Capan-1 (KRAS^G12V PDAC); (95% CI)
Capan-1 cells [4] = assay: Cell proliferation (CTG); type: cell-based; settings: Homo sapiens; Capan-1, CTG; (95% CI)
Protocol: (§1) Alternatively, cells were seeded in round-bottom ultra-low attachment 96-well plates, centrifuged at 1,000 rpm for 10 min to pellet the cells, and incubated overnight or up to 72 h to allow for 3D spheroid formation. […] Cell viability was determined by CellTiter-Glo 2.0 reagent (2D CTG) (Promega, G9243) or 3D CellTiter-Glo reagent (3D CTG) (Promega, G9683) according to the manufacturer’s protocols. Luminescence was detected using a SpectraMax M5 Plate Reader (Molecular Devices) of Perkin Elmer Enspire. Luminescence signal was normalized to vehicle-treated wells (normalized signal (%) = (luminescence (treated)/mean luminescence (vehicle)) × 100%). […] Data were plotted as log [inhibitor (M)], and a four-parameter sigmoidal concentration response model was fitted to the data to calculate EC50. […] Pa16C MEK1 mutant cells were evaluated by live-cell counting using Calcein AM and a SpectraMax i3X multi-mode detection platform (Molecular Devices). Growth percentages were calculated by normalizing the treated cell counts to their respective untreated cell counts.

A375 cells [5] = assay: Cellular ERK phosphorylation (pERK); type: cell-based, human; settings: Homo sapiens, A-375; A375 (BRAF^V600E)
[6] = Oral bioavailability in mice (LC-MS/MS of blood); type: in vivo; settings: mouse, whole blood, read-out: Oral Bioavailability m%F
KRAS^G12V [7] = biological target: T2, KRAS^G12V (Homo sapiens, UniProt P01116+P62937, G12V); assay: RAS binding affinity of compound-bound CYPA (Kd2), SPR; parameters: His6-TEV (N); made in house; host or cells: BL21(DE3) Escherichia coli; settings: steady state, (95% CI)
A375 cells [8] = assay: Cell proliferation (CTG); type: cell-based, human; settings: Homo sapiens, A-375; A375, CTG; (95% CI)
Protocol: as §1

KRAS^G12V [9] = biological target: T2, KRAS^G12V; assay: Biochemical RAS–RAF (BRAF RBD) disruption, TR-FRET; parameters: His6-TEV (N); made in house; host or cells: BL21(DE3) Escherichia coli
Description: Time-resolved fluorescence resonance energy transfer (TR-FRET) was used as previously described to assess disruption of the interactions between wild-type RAS or the mutant oncogenic RAS proteins and the RAS-binding domain of BRAF, and to assess the induction of interactions between the RAS proteins and CYPA[12].

C#Cc1c(F)ccc2cc(O)cc(-c3ncc4c(N5CC6CCC(C5)N6)nc(OC[C@@]56CCCN5C[C@H](F)C6)nc4c3F)c12 [MRTX1133, reference compound]
pERK suppression over time [1]: rebounded by 48 h | Proliferation of Pa16C cells expressing MEK1 mutant constructs ([2]; MEK1E102-I103del, inhibitor 0.046 nM): 125.8 and 122.1 and 120.54 and 95.05 | Proliferation of Pa16C cells expressing MEK1 mutant constructs ([2]; MEK1E102-I103del, inhibitor 0.412 nM): 113.2 and 113.4 and 113.54 and 82.15 | Proliferation of Pa16C cells expressing MEK1 mutant constructs ([2]; MEK1E102-I103del, inhibitor 1.235 nM): 110 and 114.8 and 110.17 and 83.99 | Proliferation of Pa16C cells expressing MEK1 mutant constructs ([2]; MEK1E102-I103del, inhibitor 3.704 nM): 89.5 and 104.7 and 87.18 and 77.13 | Proliferation of Pa16C cells expressing MEK1 mutant constructs ([2]; MEK1K57N, inhibitor 0.046 nM): 113.3 and 92 and 123.41 and 119.36 | Proliferation of Pa16C cells expressing MEK1 mutant constructs ([2]; MEK1K57N, inhibitor 0.412 nM): 108.9 and 110.1 and 130.35 and 129.87 | Proliferation of Pa16C cells expressing MEK1 mutant constructs ([2]; MEK1K57N, inhibitor 1.235 nM): 119.4 and 130.2 and 127.87 and 133.27 | Proliferation of Pa16C cells expressing MEK1 mutant constructs ([2]; MEK1K57N, inhibitor 3.704 nM): 112.2 and 126.4 and 116.3 and 122.06 | Proliferation of Pa16C cells expressing MEK1 mutant constructs ([2]; MEK1Q56P, inhibitor 0.046 nM): 116.6 and 110 and 105 and 106.72 | Proliferation of Pa16C cells expressing MEK1 mutant constructs ([2]; MEK1Q56P, inhibitor 0.412 nM): 113.89 and 123.5 and 112.2 and 128.92 | Proliferation of Pa16C cells expressing MEK1 mutant constructs ([2]; MEK1Q56P, inhibitor 1.235 nM): 123.05 and 112.4 and 128.9 and 131.08 | Proliferation of Pa16C cells expressing MEK1 mutant constructs ([2]; MEK1Q56P, inhibitor 3.704 nM): 108.45 | Proliferation of Pa16C cells expressing MEK1 mutant constructs ([2]; MEK1S218D/S222D, inhibitor 0.046 nM): 106.52 and 116.35 and 117.97 and 101.1 | Proliferation of Pa16C cells expressing MEK1 mutant constructs ([2]; MEK1S218D/S222D, inhibitor 0.412 nM): 107.39 and 112.33 and 125.31 and 99.77 | Proliferation of Pa16C cells expressing MEK1 mutant constructs ([2]; MEK1S218D/S222D, inhibitor 1.235 nM): 101.82 and 118.84 and 117.94 and 98.18 | Proliferation of Pa16C cells expressing MEK1 mutant constructs ([2]; MEK1S218D/S222D, inhibitor 3.704 nM): 93.55 and 118.16 and 86.21 and 93.79 | Proliferation of Pa16C cells expressing MEK1 mutant constructs ([2]; MEK1WT, inhibitor 0.046 nM): 112.3 and 102.3 and 116.1 and 105.31 and 102.33 | Proliferation of Pa16C cells expressing MEK1 mutant constructs ([2]; MEK1WT, inhibitor 0.412 nM): 119.4 and 93.5 and 109.72 and 103.89 and 97.19 | Proliferation of Pa16C cells expressing MEK1 mutant constructs ([2]; MEK1WT, inhibitor 1.235 nM): 110 and 85.2 and 91.69 and 105.96 and 84.4 | Proliferation of Pa16C cells expressing MEK1 mutant constructs ([2]; MEK1WT, inhibitor 3.704 nM): 88.3 and 70.7 and 61.19

CCn1c(-c2cccnc2[C@H](C)OC)c2c3cc(ccc31)-c1cccc(c1)C[C@H](NC(=O)[C@H](C(C)C)N(C)C(=O)[C@H]1CCN(C(C)=O)C1)C(=O)N1CCC[C@H](N1)C(=O)OCC(C)(C)C2 [Compound 1]
Kd (CYPA): 0.862 µM | EC50 (Capan-1 cells [3]): 0.632 µM | EC50 (Capan-1 cells [4]): 0.965 µM | EC50 (A375 cells [5]): > 10 µM | bioavailability [6]: 5% | Kd (KRAS^G12V [7]): 6.55 µM | EC50 (A375 cells [8]): 6.41 µM | EC50 (KRAS^G12V [9]): 4.4 µM
